{
  "source": "paper PMC2652713",
  "about": "“Molecular Blocking of CD23 Supports Its Role in the Pathogenesis of Arthritis” (PLoS ONE, 2009)",
  "key": {"[1]": {"test_system": "adjuvant-induced arthritis in rats", "assay": "Histopathologic analysis of AIA lesions", "format": "in vivo, rat, Female Lewis", "settings": "50 days after AIA induction", "procedure": "Figure 6 Inhibition of in vitro and in vivo inflammatory responses in rats by p30A peptide. (A) Rat peritoneal macrophages were activated via CD23 antigens with/without p30A, L-NIL or pCtl. Cell supernatants were collected 48 h later and nitrite levels were quantified. Values are mean±s.d. of cells from 3 different rats. (B) Cumulative clinical score/rat obtained following 50 days post-immunization in all groups. AIA rats were treated either after or before (d0) the onset of symptoms. Treatment consisted of p30A, hydrocortisone (HC, 30 mg/rat)) or pCtl (100 mg/rat). Shown are means of cumulative score/rat±s.d. from 5 (HC) or 8 rats (other conditions). […]\nAdjuvant arthritis was induced in six week-old animals by subcutaneous injection at the base of the tail of 300 µl containing 1.8 mg of inactivated Mycobacterium butyricum (Difco Laboratories, Detroit, MI) diluted in emulsion of 8 ml Vaseline, 1 ml polysorbate 80, and 1 ml PBS (Phosphate Buffer Saline, Eurobio). […] The severity of AIA in each paw was quantified daily using an ordinal clinical score measurement from 0 to 4 as follows: no signs of inflammation ( = 0); swelling alone (>2 fold paw diameter) ( = 1) or swelling/immobility ( = 2) of one paw; swelling ( = 3) or swelling/immobility ( = 4) of two paws. Weight evolution of rats was measured daily. […]"}, "[2]": {"test_system": "human CD23+ macrophages", "assay": "IgE-mediated activation of human CD23+ macrophages", "format": "cell-based", "procedure": "(§1) Monocytes or macrophages were activated through CD23 pathway: while monocytes/macrophages from RA patients express CD23, monocytes from healthy donors must be pre-activated to express surface CD23 as described. This pre-activation was obtained by incubation of healthy monocytes with recombinant human IL-4 (20 ng/ml) during 48 h at 37°C; After washing, all cell populations were tested by flow cytometry for their surface CD23 expression (>80% CD23^+) and then incubated in the presence of cross-linking CD23-MAb (clones 135 or DM2, IgG1k, 20 µg/ml) during 48–72 h, or IgE and anti-IgE as described, [17]. When indicated, peptides were added to the cells 2 h prior to their activation. Cells supernatants were then analyzed for their nitric oxide content (see below) and for the presence of cytokines: levels of TNF-α and IL-6 were determined in duplicates for each sample by a specific ELISA (R&D, Paris, France) while levels of IL-1β, IL-8 and IL-10 was determined using FlowCytomix Human Th1/Th2 Kit as recommended (Bender Medsystems, Vienna, Austria)."}, "[3]": {"test_system": "human CD23+ monocyte-derived macrophages", "assay": "Nitrite (NO) generation by CD23-activated human macrophages, Griess reaction", "format": "cell-based", "procedure": "Figure 2 Inhibition of CD23-mediated activation of iNOS pathway in human macrophages by p30A. Human CD23^+ monocyte-derived macrophages were incubated with cross-linking CD23-McAb (20 µg/ml) alone or following 1 h pre-incubation with 10 µg/ml of various peptides. […] Expression of iNOS mRNA was compared to HPRT mRNA levels. (B) Inhibition of NO generation from human activated macrophages by synthetic peptides. Cell supernatants were collected 72 h following cell cultures and levels of nitrites were determined. […] Results are expressed as mean of 3 distinct donor cell preparations (SEM<20%). (C) Inducible NOS-mediated NO generation in human macrophages is decreased following pre-incubation with p30A or L-NIL prior to CD23-mediated activation. Results are expressed as mean±s.d. of 7 distinct donor cell preparations.\nas §1\nCulture supernatants (72 h) were assayed for the stable end-product of NO, NO2 ^− using the Griess reaction modified as detailed elsewhere. Inhibitory analog of L-arginine, L-NIL (N(6)-(1-iminoethyl)-L-lysine/2HCl, Coger SA, Paris, France) was used to inhibit iNOS-mediated NO generation. This method gave a sensitivity limit of 0.2 µM if low NO2 ^− medium (DMEM) was used. Total RNA was isolated as above from peritoneal macrophages. Reverse transcription-PCR was performed with an automatic thermal cycler (iCycler, Biorad) using the following specific primers: iNOS mRNA sense (5′-[…]-3′, exon 8) and iNOS mRNA antisense (5′-[…]-3′, exon 11). Hypoxanthine phosphoribosyltransferase (HPRT) mRNA sense (5′-[…]-3′) and HPRT mRNA antisense (5′-[…]- 3′) primers were used as controls. The iNOS messenger is represented by a 371-bp band, whereas a 496-bp band indicates the HPRT messenger."}, "[4]": {"test_system": "adjuvant-induced arthritis in rats", "assay": "Adjuvant-induced arthritis (AIA) clinical score in rats", "format": "in vivo, rat, Female Lewis", "procedure": "Figure 6 Inhibition of in vitro and in vivo inflammatory responses in rats by p30A peptide. (A) Rat peritoneal macrophages were activated via CD23 antigens with/without p30A, L-NIL or pCtl. Cell supernatants were collected 48 h later and nitrite levels were quantified. Values are mean±s.d. of cells from 3 different rats. (B) Cumulative clinical score/rat obtained following 50 days post-immunization in all groups. AIA rats were treated either after or before (d0) the onset of symptoms. Treatment consisted of p30A, hydrocortisone (HC, 30 mg/rat)) or pCtl (100 mg/rat). Shown are means of cumulative score/rat±s.d. from 5 (HC) or 8 rats (other conditions). (C) Evolution of arthritis severity scores of adjuvant-induced arthritis (AIA) in rats treated with intracutaneous p30A or pCtl (100 mg/rat) or hydrocortisone (after the onset of clinical signs as illustrated by arrows (means from 8 rats, s.e.m.<20%). (D) Histopathologic analysis confirm p30A ability to decrease all components of AIA lesions: pannus formation and inflammation of the synovium (P), deformity of joint and bones (asterix), bone remodeling and destruction (arrowhead), bone neoformation (arrows) and cartilage destruction.\nAll animal procedures were performed in strict accordance with the guidelines issued by the European Economic Community “86/609”. Female Lewis rats (Janvier, Le Genest St Isle, France) were housed under standard laboratory conditions with free access to food and water. The temperature was kept at 22±2°C and a 12 hour light/dark schedule was maintained.\nAdjuvant arthritis was induced in six week-old animals by subcutaneous injection at the base of the tail of 300 µl containing 1.8 mg of inactivated Mycobacterium butyricum (Difco Laboratories, Detroit, MI) diluted in emulsion of 8 ml Vaseline, 1 ml polysorbate 80, and 1 ml PBS (Phosphate Buffer Saline, Eurobio). Rats were boosted one week later following the same procedure. Observation was conducted for up to 50 days following immunization for clinical signs of arthritis. Rats were divided in different groups of 8 rats. Groups were treated with five injections (every 2 days) of either p30A (10, 50 or 100 mg in a PBS solution), pCtl, hydrocortisone (Sigma Aldrich) or PBS solution. Injections were initiated two days after the appearance of first arthritic symptoms (therapeutic) or on the first day of immunization (preventive). Evaluation of AIA severity was performed by two independent observers who where not aware of the study protocol. The severity of AIA in each paw was quantified daily using an ordinal clinical score measurement from 0 to 4 as follows: no signs of inflammation ( = 0); swelling alone (>2 fold paw diameter) ( = 1) or swelling/immobility ( = 2) of one paw; swelling ( = 3) or swelling/immobility ( = 4) of two paws. Weight evolution of rats was measured daily. Rats were sacrificed 50 days after AIA induction. Peritoneal macrophages were collected and incubated in culture medium alone for 48 h. Quantification of TNF-α and IL-1β in rat cell supernatants was performed using appropriate ELISA kits and according to manufacturer's recommendations (Biosource, Montrouge, France)."}, "[5]": {"test_system": "rat CD23+ macrophages", "assay": "IgE-mediated activation of rat CD23+ macrophages", "format": "cell-based", "procedure": "Peptides were added one hour prior to cell activation."}},
  "note": "Entries after “also recorded” stand apart in the source; their conditions may differ.",
  "data": [
    {"substance": "FHENWPS [p30A]", "values": [
      {"measurement": "components of AIA arthritic lesions (pannus formation and synovium inflammation, joint/bone deformity, bone remodeling and destruction, bone neoformation, cartilage destruction)", "setting": "[1]", "result": "significantly decreased all components of AIA arthritic lesions"},
      {"measurement": "IgE-mediated activation of human CD23+ macrophages", "setting": "[2]", "result": "decreased IgE-mediated activation of both human and rat CD23^+ macrophages"},
      {"measurement": "NO (nitrite) generation, dose-dependence", "setting": "[3]; CD23-McAb 20 µg/ml, 1 h pre-incubation with peptide, supernatants at 72 h, mean of 3 donors (SEM<20%)", "result": "reversed by p30A in a dose-dependent manner; also recorded: Dose-dependent reduction of nitrites"},
      {"measurement": "iNOS-mediated NO generation", "setting": "[3]; pre-incubation prior to CD23-mediated activation, mean±s.d. of 7 donors (Figure 2C)", "result": "decreased"},
      {"measurement": "cumulative clinical score vs non-treated rats", "setting": "[4]; AIA rats, 50 days post-immunization, five intracutaneous doses every two days, 8 rats, p<0,0001", "result": "significantly improved the clinical course of AIA rats"},
      {"measurement": "decrease of arthritic scores compared with hydrocortisone", "setting": "[4]; AIA rats, hydrocortisone 30 mg/rat", "result": "more efficient than hydrocortisone in decreasing arthritic scores"},
      {"measurement": "arthritic signs, dose-dependence", "setting": "[4]; AIA rats, p30A 10, 50 or 100 mg, five injections every 2 days", "result": "decreased arthritic signs in rats in a dose-dependent manner"},
      {"measurement": "effectiveness after disease onset or for prevention", "setting": "[4]; AIA rats, therapeutic or p30A-d0, p<0.0002", "result": "effective either after disease onset or for the prevention"},
      {"measurement": "prevention of severe clinical signs", "setting": "[4]; p30A administered prior to disease induction", "result": "prevented the development of severe clinical signs in rats"},
      {"measurement": "clinical scores and bone destruction", "setting": "[4]; rat model of arthritis", "result": "ameliorates clinical scores and prevent bone destruction in a dose dependent manner"},
      {"measurement": "duration of dose-dependent effect", "setting": "[4]; rat model of chronic arthritis, indirectly supports stability of p30A in vivo", "result": "> one month"},
      {"measurement": "IgE-mediated activation of rat CD23+ macrophages", "setting": "[5]", "result": "decreased IgE-mediated activation of both human and rat CD23^+ macrophages"}
    ]}
  ]
}
